Patent US8268292B2, “Obovatol having anti-anxiety activity” (Korea Research Institute of Bioscience and Biotechnology, priority 2005, dated 2012)

Key:
Type in all cases: in vivo
[1] = test system: ICR mice; experiment: acute toxicity test on ICR mice; details: oral 10, 100 and 1000 mg/kg, observed for 2 weeks
Method: (§1) The acute toxicity tests on ICR mice (mean body weight 25±5 g) and Sprague-Dawley rats (235±10 g, Biogenomics Co., Ltd.) were performed using the obovatol compound. Four groups consisting of 3 mice or rats was administrated orally with 10 mg/kg, 100 mg/kg and 1000 mg/kg of test sample or solvents (0.2 mL, […].) respectively and observed for 2 weeks.

[2] = test system: ICR male mice; experiment: locomoter activity test; details: oral 0.2, 0.5 and 1.0 mg/kg; dose dependent
Method: All the animals used in the test are prepared in the similar method according to Experimental Example 1.
To determine and re-confirm the anti-anxiety activity of obovatol, following locomoter activity test was performed as follow in accordance with the procedure cited in the literature (Kulkarni S. K. et al., Methods and Findings in Experimental and Clinical Pharmacology, 18, pp. 219-230, 1996).
All the animals were transferred to test cage (diameter: 20 cm, height: 18 cm) one hour prior to the administration of test samples, acclimated the environment for 10 mins and the locomoter activity was determined automatically at every 1 hour.

[3] = test system: ICR male mice; experiment: elevated plus-maze model test
Method: Animals and Drugs: ICR male mice weighing from 20 g to 28 g (5 or 6 weeks) were purchased from Daehan Biolink Co., Ltd. (Korea) and housed for at least 7 days prior to the experiment under 12-h light/dark cycle (lights on at 7:00 am) in a temperature-controlled (22±2° C.) animal facility. Food and water were freely accessible. All mice were maintained in accordance with the National Institute of Toxicological Research on the Korea Food and Drug Administration guideline for the care and use of laboratory animals. Diazepam (ample type) was purchased from Dea-Won Pharmaceutical Co. (South Korea) and was orally administered 30 min prior to the experiment. Obovatol was kindly gifted from Korea Research Institute of Bioscience and Biotechnology and was orally administered 60 min prior to the experiment.
Treatment of Test Sample: obovatol prepared from Example 1 was dissolved in 0.1 ml of ethanol and diluted with 0.1% Tween-80 in order to administrate with an amount of 0.1 ml/10 g per weight of test animal. Various concentrations of test sample (obovatol), i.e., 0.2, 0.5 and 1 mg/kg were orally administrated at 1 hour prior to the experiment and […] of diazepam was peritoneally administrated into animal at 30 mins prior to the experiment.
To determine the anti-anxiety activity after administration of obovatol, elevated plus-maze model test was performed as follow in accordance with procedure cited in the literature (Dawson, G. R. et al., Trends in Pharmacological Sciences, 16, pp. 33-36, 1995).
Elevated plus-maze apparatus consists of two perpendicular open (30×5 cm) and two closed arms (30×5 cm) with 15 cm high walls, extending from the central platform (5×5 cm). […] All experimental sessions were recorded with a video camera mounted vertically above the maze. The activity on the open arm was evaluated as: 1) time spent on the open arms relative to the total time spent in the plus-maze, expressed as a percentage (100× time spent on open arm/total time in the plus-maze); 2) the number of entries into both open and closed arms, expressed as a percentage (100× open/total entries). […]

[4] = test system: Sprague-Dawley rats; experiment: acute toxicity test on Sprague-Dawley rats; details: oral 10, 100 and 1000 mg/kg, observed for 2 weeks
Method: as §1

How did the “treatment-related effects on mortality, clinical signs, body weight changes and gross findings” value [1] turn out when obovatol was run?
Its value is “no treatment-related effects”.

And the locomoter activity [2]?
The locomoter activity was “significantly decreased”.

What about the “anti-anxiety activity relative to diazepam” value ([3]; at the same doses of the drugs, elevated plus-maze, FIG. 3 and FIG. 4) of the same substance?
Its value is “more potent anti-anxiety activity than diazepam”.

And the “percentage of time spent in the open arms” value ([3]; oral 0.2, 0.5 and 1.0 mg/kg, 60 min prior (P<0.05, P<0.05 and P<0.005))?
The value was “significant increases”.

And the “percentage of entries into open arms” value ([3]; oral 0.2, 0.5 and 1.0 mg/kg, 60 min prior, dose dependent, compared with diazepam treated group (P<0.05, P<0.05 and P<0.005))?
The value was “significantly increased”.

And the “treatment-related effects on mortality, clinical signs, body weight changes and gross findings” value [4]?
Its value is “no treatment-related effects”.
